Reference: ChEMBL document CHEMBL3352494, “New guaiane sesquiterpenes from Artemisia rupestris and their inhibitory effects on nitric oxide production” (Bioorg Med Chem Lett, 2014)

Key:
RAW264.7 [1] = experiment: Cytotoxicity against mouse RAW264.7 cells at 0.01 to 100 uM after 24 hrs by MTT assay; format: cell-based; conditions: raw264.7, 24 h
RAW264.7 [2] = experiment: Inhibition of NO production in LPS-stimulated mouse RAW264.7 cells pre-incubated for 2 hrs before LPS stimulation for 24 hrs by Griess assay method; format: functional, cell-based

SMILES: C=C(C(=O)O)[C@@H]1CC[C@H](C)[C@]2(O)CC(=O)C(C)=C2C1
- Activity (RAW264.7 [1]): Non-toxic
- IC50 (RAW264.7 [2]): 0.18 µM

SMILES: C=C(C(=O)O)[C@@H]1CC[C@](C)(O)[C@@H]2CC(=O)C(C)=C2C1
- Activity (RAW264.7 [1]): Non-toxic
- IC50 (RAW264.7 [2]): 0.47 µM

SMILES: C=C(C(=O)O[C@@H]1O[C@H](CO)[C@@H](O)[C@H](O)[C@H]1O)[C@@H]1CC[C@H](C)[C@@H]2CC(=O)C(C)=C2C1
- Activity (RAW264.7 [1]): Non-toxic
- IC50 (RAW264.7 [2]): 4.6 µM

SMILES: COc1cc(-c2oc3cc(OC)c(OC)c(O)c3c(=O)c2O)ccc1O
- Activity (RAW264.7 [1]): Non-toxic
- IC50 (RAW264.7 [2]): 4.75 µM

SMILES: COc1ccc(Oc2cc(=O)c3c(O)cc(O[C@@H]4O[C@H](CO)[C@@H](O)[C@H](O)[C@H]4O)cc3o2)cc1
- Activity (RAW264.7 [1]): Non-toxic
- IC50 (RAW264.7 [2]): 21.4 µM

SMILES: COc1ccc(-c2cc(=O)c3c(O)cc(O[C@@H]4O[C@H](CO)[C@@H](O)[C@H](O)[C@H]4O)cc3o2)cc1OC
- Activity (RAW264.7 [1]): Non-toxic
- IC50 (RAW264.7 [2]): 9.51 µM

SMILES: COC(=O)[C@@]1(O)C[C@@H](O)[C@@H](OC(=O)/C=C/c2ccc(O)c(O)c2)[C@H](OC(=O)/C=C/c2ccc(O)c(O)c2)C1
- Activity (RAW264.7 [1]): Non-toxic
- IC50 (RAW264.7 [2]): 23.3 µM

SMILES: O=C(/C=C/c1ccc(O)c(O)c1)O[C@@H]1[C@H](O)C[C@](O)(C(=O)O)C[C@H]1OC(=O)/C=C/c1ccc(O)c(O)c1 (relative stereo)
- Activity (RAW264.7 [1]): Non-toxic
- IC50 (RAW264.7 [2]): 20.2 µM

SMILES: COc1ccc(-c2cc(=O)c3c(O)cc(O[C@@H]4O[C@H](CO[C@@H]5O[C@@H](C)[C@H](O)[C@@H](O)[C@H]5O)[C@@H](O)[C@H](O)[C@H]4O)cc3o2)cc1 [ACACIIN]
- Activity (RAW264.7 [1]): Non-toxic
- IC50 (RAW264.7 [2]): 10 µM

SMILES: COc1cc(-c2cc(=O)c3c(O)cc(O)cc3o2)ccc1O [CHRYSOERIOL]
- IC50 (RAW264.7 [2]): 0.24 µM

SMILES: O=c1cc(-c2ccc(O)c(O)c2)oc2cc(O[C@@H]3O[C@H](CO)[C@@H](O)[C@H](O)[C@H]3O)cc(O)c12 [GALUTEOLIN]
- Activity (RAW264.7 [1]): Non-toxic
- IC50 (RAW264.7 [2]): 8.3 µM

SMILES: O=c1cc(-c2ccc(O)c(O)c2)oc2cc(O)cc(O)c12 [LUTEOLIN]
- Activity (RAW264.7 [1]): Non-toxic
- IC50 (RAW264.7 [2]): 0.21 µM

SMILES: COc1ccc(-c2cc(=O)c3c(O)c(OC)c(O)c(OC)c3o2)cc1 [NEVADENSIN]
- Activity (RAW264.7 [1]): Non-toxic
- IC50 (RAW264.7 [2]): 5.08 µM

SMILES: C=C(C(=O)O)[C@@H]1CC[C@H](C)[C@@H]2CC(=O)C(C)=C2C1 [PECHUELOIC ACID]
- Activity (RAW264.7 [1]): Non-toxic
- IC50 (RAW264.7 [2]): 3.04 µM

SMILES: N=C(N)NN [PIMAGEDINE]
- IC50 (RAW264.7 [2]): 0.23 µM

SMILES: COc1ccc(-c2cc(=O)c3c(O)cc(O[C@@H]4O[C@H](CO)[C@@H](O)[C@H](O)[C@H]4O)cc3o2)cc1 [TILIANINE]
- Activity (RAW264.7 [1]): Non-toxic
- IC50 (RAW264.7 [2]): 8.94 µM
